T1: Aurora C (AURKC) (Homo sapiens, UniProt Q9UQB9)
T1 construct: recombinant active AURKC
T1 sequence (Q9UQB9 1-309): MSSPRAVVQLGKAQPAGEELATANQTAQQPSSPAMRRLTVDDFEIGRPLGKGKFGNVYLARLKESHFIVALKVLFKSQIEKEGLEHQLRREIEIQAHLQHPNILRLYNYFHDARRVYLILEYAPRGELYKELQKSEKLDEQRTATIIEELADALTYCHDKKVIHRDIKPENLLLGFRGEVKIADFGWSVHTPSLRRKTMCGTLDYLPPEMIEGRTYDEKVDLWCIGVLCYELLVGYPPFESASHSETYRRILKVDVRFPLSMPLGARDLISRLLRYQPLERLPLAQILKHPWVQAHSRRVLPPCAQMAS

T2: pBIND-AURKC (human, UniProt Q9UQB9 1-309)
T2 construct: Aurora C kinase (AURKC); also called pM-BD-pAURKC; source: mammalian two-hybrid fusion, transfected cells
T2 sequence (looked up): T1 sequence (Q9UQB9 1-309)

B1: pACT-IκBα (natural protein, human, UniProt P25963 1-317, looked up)
chain: MFQAAERPQEWAMEGPRDGLKKERLLDDRHDSGLDSMKDEEYEQMVKELQEIRLEPQEVPRGSEPWKQQLTEDGDSFLHLAIIHEEKALTMEVIRQVKGDLAFLNFQNNLQQTPLHLAVITNQPEIAEALLGAGCDPELRDFRGNTPLHLACEQGCLASVGVLTQSCTTPHLHSILKATNYNGHTCLHLASIHGYLGIVELLVSLGADVNAQEPCNGRTALHLAVDLQNPDLVSLLLKCGADVNRVTYQGYSPYQLTWGRPSTRIQQQLGQLTLENLQMLPESEDEESYDTESEFTEFTEDELPYDDCVFGGQRLTL
notes: IκBα; also called pVP-IκBα; source: mammalian two-hybrid fusion, transfected cells

Columns and labels:
Aurora C (AURKC) = target: T1, Aurora C (AURKC); assay: ATP-competition kinase assay, active AURKC and purified IκBα, pS32 immunoblot (GSK1070916 […], various ATP); format: biochemical
pBIND-AURKC = target: T2, pBIND-AURKC; assay: two-hybrid; mammalian two-hybrid: pBIND-AURKC, pACT-IκBα and pG5-luciferase transfected in equal amounts; luciferase read-out normalised against the control; settings: partners not purified

Row | Molecule | ATP-competition kinase assay, active AURKC and purified IκBα, pS32 immunoblot (G) (Aurora C (AURKC)) | fold luciferase activity over the Bind-AURKC vector (pBIND-AURKC) [fold]
1 | CCn1cc(-c2ccnc3[nH]c(-c4cccc(CN(C)C)c4)cc23)c(-c2ccc(NC(=O)N(C)C)cc2)n1 [GSK1070916] | the inhibitory activity of GSK1070916 was inversely proportional to the concentration of ATP (Figure 6E and 6F) | 
2 | B1 |  | ~2.7
